# In US7989422B2, “Antibacterial agents” (Alchemia Limited, priority 2005, dated 2011):
# Experiments:
# Format in all cases: cell-based
# [1] = test system: Staphylococcus aureus (MRSA) ATCC 33591; experiment: MIC against MRSA, microbroth dilution; settings: MIC class
# Experimental: (§1) Testing was conducted to determine the in vitro antimicrobial activity of a series of compounds synthesised by Alchemia Pty Ltd. The antimicrobial activity of each compound was determined at a single concentration (128 μg/mL) in Mueller Hinton (MH) broth against the ATCC type strain of Staphylococcus aureus. […] Compounds showing activity at concentrations up to 32-64 μg/mL in the presence/absence of serum were then tested for MIC activity against a standard set of 5 microorganisms comprising of ATCC type strains of MRSA, Enterococcus faecalis, Enterococcus faecium, VRE and Escherichia coli. CLSI (formerly NCCLS) microbroth dilution technique was used.
# (§2) Each compound is initially dissolved in 100 μL of DMSO. Each solution is then diluted further in 0.9 mL of sterile MH broth to give a total volume of 1 mL (1000 μg/mL) This stock solution is then further diluted in MH broth to give a test solution with final concentration of 128 μg/mL using the following formula: 0.5 ml stock in 3.4 ml MH broth
# (§3) Each test organism was subcultured from the −70° C. deep freezer onto horse blood agar. The plates were streaked to obtain isolated colonies and incubated at 35° C. in non-CO2 incubator for 24 hours. A second subculture was carried out onto horse blood agar. For each test organism, 1-2 colonies were selected from an 18-24 hour culture and inoculated into 2 ml sterile MH broth. The turbidity was adjusted to 0.5 McFarland standard.
# (§4) A 1:10 dilution in MH broth (200 μL in 2 ml MH) of the 0.5 McFarland control was prepared. 5 μL of this diluted solution was used to inoculate the trays.
# (§5) The trays were prepared in a similar way as mentioned above and incubated at 35° C. in a non-CO2 incubator for 18-24 hours. The plates were examined for growth after the incubation time.
# (§6) After 18-24 hour incubation 5 μL from each well was then inoculated onto horse blood agar and incubated for 18-24 hours at 35° C. in a non-CO2 incubator.
# (§7) If the test organism is sensitive to the compound in the broth the growth will be inhibited. Similarly, if the organism grows on the antibiotic containing medium then it is resistant to this particular antibiotic.
# [2] = test system: Enterococcus faecalis ATCC 29212; experiment: MIC against E. faecalis, microbroth dilution; settings: MIC class
# Experimental: as §1, §2, §3, §4, §5, §6, §7
# [3] = test system: Enterococcus faecium ATCC 35667; experiment: MIC against E. faecium, microbroth dilution; settings: MIC class
# Experimental: as §1, §2, §3, §4, §5, §6, §7
# E. Faecium 51299 VanB = experiment: MIC against vancomycin-resistant enterococcus 51299 (VanB), microbroth dilution; settings: MIC class; ATCC 51299 VanB
# Experimental: as §1, §2, §3, §4, §5, §6, §7
# [4] = test system: Staphylococcus aureus ATCC 25923; experiment: MIC against S. aureus, microbroth dilution in MH broth, without or with 5% horse serum; settings: MIC class; S. aureus ATCC 25923
# Experimental: as §1, §2, §3, §4
# 100 μL of sterile MH broth was added in columns 2-12. 200 μL of test solution was added in column 1. 100 μL was transferred in column 2 giving a ½ dilution. 100 μL from column 2 was then transferred to column 3 (¼ dilution). This dilution was carried on until column 12. A second tray containing the same test solution was inoculated in a similar manner using sterile MH broth with 5% heat inactivated horse serum. 5 μL of organism solution was then added to each well. The plates were then sealed and incubated at 35° C. in a non-CO2 incubator for 18-24 hours. The plates were examined for growth after the incubation time.
# as §7
Structure (SMILES),S. Aureus 33591 MRSA activity [1],E. Fecalis 29212 activity [2],E. Faecium 35667 activity [3],E. Faecium 51299 VanB activity (E. Faecium 51299 VanB),S. Aureus 25923 activity [4]
CCCCCCCCCCCCC(N)C(=O)NC1C(CO)OCC(n2cnc3cc(C(F)(F)F)cc(Cl)c32)C1O (stereo not shown) [Compound 188],+ (“+”: MIC (μg/mL): 64 ≧ MIC > 16),+ (“+”: MIC (μg/mL): 64 ≧ MIC > 16),− (“−”: MIC (μg/mL): MIC > 64),+ (“+”: MIC (μg/mL): 64 ≧ MIC > 16),+ (“+”: MIC (μg/mL): 64 ≧ MIC > 16)
"Nc1ccccc1OC1C(NC(=O)Nc2ccc(Cl)c(C(F)(F)F)c2)COC(CO)C1NC(=O)C(N)Cc1ccc(-c2ccccc2)cc1 (single isomer, unassigned) [Compound 70]",++ (“++”: MIC (μg/mL): MIC ≦ 16),+ (“+”: MIC (μg/mL): 64 ≧ MIC > 16),+ (“+”: MIC (μg/mL): 64 ≧ MIC > 16),− (“−”: MIC (μg/mL): MIC > 64),+ (“+”: MIC (μg/mL): 64 ≧ MIC > 16)
NC(C(=O)Nc1nc2cc(C(F)(F)F)ccc2n1C1C(CO)OCC(NC(=O)Nc2ccc(Cl)c(C(F)(F)F)c2)C1O)c1ccc(-c2ccccc2)cc1 (stereo not shown) [Compound 236],++ (“++”: MIC (μg/mL): MIC ≦ 16),++ (“++”: MIC (μg/mL): MIC ≦ 16),++ (“++”: MIC (μg/mL): MIC ≦ 16),+ (“+”: MIC (μg/mL): 64 ≧ MIC > 16),− (“−”: MIC (μg/mL): MIC > 64)
O=C(Nc1ccc(Cl)c(C(F)(F)F)c1)NC1COC(CO)C(n2c(NCc3ccc(Cl)cc3)nc3cc(C(F)(F)F)ccc32)C1O (stereo not shown) [Compound 247],++ (“++”: MIC (μg/mL): MIC ≦ 16),++ (“++”: MIC (μg/mL): MIC ≦ 16),− (“−”: MIC (μg/mL): MIC > 64),++ (“++”: MIC (μg/mL): MIC ≦ 16),++ (“++”: MIC (μg/mL): MIC ≦ 16)
Nc1ccccc1OC1C(NS(=O)(=O)c2ccc(C(F)(F)F)cc2)COC(CO)C1NC(=O)C(N)Cc1ccc(-c2ccccc2)cc1 (stereo not shown) [Compound 79],+ (“+”: MIC (μg/mL): 64 ≧ MIC > 16),− (“−”: MIC (μg/mL): MIC > 64),− (“−”: MIC (μg/mL): MIC > 64),− (“−”: MIC (μg/mL): MIC > 64),+ (“+”: MIC (μg/mL): 64 ≧ MIC > 16)
Nc1nc2cc(C(F)(F)F)cc(Cl)c2n1C1COC(CO)C(NC(=O)c2ccc(-c3ccccc3)cc2)C1O (stereo not shown) [Compound 155],+ (“+”: MIC (μg/mL): 64 ≧ MIC > 16),− (“−”: MIC (μg/mL): MIC > 64),− (“−”: MIC (μg/mL): MIC > 64),− (“−”: MIC (μg/mL): MIC > 64),+ (“+”: MIC (μg/mL): 64 ≧ MIC > 16)
Nc1cc(C(F)(F)F)cc(Cl)c1NC1COC(CO)C(NC(=O)C(N)Cc2ccc(-c3ccccc3)cc2)C1O (stereo not shown) [Compound 202],+ (“+”: MIC (μg/mL): 64 ≧ MIC > 16),− (“−”: MIC (μg/mL): MIC > 64),+ (“+”: MIC (μg/mL): 64 ≧ MIC > 16),− (“−”: MIC (μg/mL): MIC > 64),+ (“+”: MIC (μg/mL): 64 ≧ MIC > 16)
NC(Cc1ccc(-c2ccccc2)cc1)C(=O)NC1C(CO)OCC(n2c(O)nc3cc(C(F)(F)F)cc(Cl)c32)C1O (stereo not shown) [Compound 161],+ (“+”: MIC (μg/mL): 64 ≧ MIC > 16),+ (“+”: MIC (μg/mL): 64 ≧ MIC > 16),− (“−”: MIC (μg/mL): MIC > 64),− (“−”: MIC (μg/mL): MIC > 64),+ (“+”: MIC (μg/mL): 64 ≧ MIC > 16)
O=C(Nc1ccc(Cl)c(C(F)(F)F)c1)NC1COC(CO)C(n2c(NCc3ccc(Cl)cc3)nc3cc(C(F)(F)F)cc(Cl)c32)C1O (stereo not shown) [Compound 256],− (“−”: MIC (μg/mL): MIC > 64),++ (“++”: MIC (μg/mL): MIC ≦ 16),− (“−”: MIC (μg/mL): MIC > 64),++ (“++”: MIC (μg/mL): MIC ≦ 16),− (“−”: MIC (μg/mL): MIC > 64)
CC(C)(C)c1ccc(CNc2nc3cc(C(F)(F)F)ccc3n2C2C(CO)OCC(NC(=O)Nc3ccc(Cl)c(C(F)(F)F)c3)C2O)cc1 (stereo not shown) [Compound 248],++ (“++”: MIC (μg/mL): MIC ≦ 16),++ (“++”: MIC (μg/mL): MIC ≦ 16),++ (“++”: MIC (μg/mL): MIC ≦ 16),++ (“++”: MIC (μg/mL): MIC ≦ 16),++ (“++”: MIC (μg/mL): MIC ≦ 16)
CCCCCCCCCCCCC(N)C(=O)NC1C(CO)OCC(n2c(O)nc3cc(C(F)(F)F)ccc32)C1O (stereo not shown) [Compound 181],++ (“++”: MIC (μg/mL): MIC ≦ 16),+ (“+”: MIC (μg/mL): 64 ≧ MIC > 16),+ (“+”: MIC (μg/mL): 64 ≧ MIC > 16),+ (“+”: MIC (μg/mL): 64 ≧ MIC > 16),+ (“+”: MIC (μg/mL): 64 ≧ MIC > 16)
Nc1ccccc1OC1C(NC(=O)Nc2ccc(Cl)c(C(F)(F)F)c2)COC(CO)C1NC(=O)c1ccc(-c2ccccc2)cc1 (stereo not shown) [Compound 69],− (“−”: MIC (μg/mL): MIC > 64),− (“−”: MIC (μg/mL): MIC > 64),− (“−”: MIC (μg/mL): MIC > 64),− (“−”: MIC (μg/mL): MIC > 64),+ (“+”: MIC (μg/mL): 64 ≧ MIC > 16)
Nc1nc2cc(C(F)(F)F)cc(Cl)c2n1C1COC(CO)C(NC(=O)C(N)Cc2ccc(-c3ccccc3)cc2)C1O (stereo not shown) [Compound 163],+ (“+”: MIC (μg/mL): 64 ≧ MIC > 16),+ (“+”: MIC (μg/mL): 64 ≧ MIC > 16),− (“−”: MIC (μg/mL): MIC > 64),− (“−”: MIC (μg/mL): MIC > 64),+ (“+”: MIC (μg/mL): 64 ≧ MIC > 16)
CCCCCCCCCCCCC(N)C(=O)NC1C(CO)OCC(n2c(S)nc3cc(C(F)(F)F)cc(Cl)c32)C1O (stereo not shown) [Compound 186],+ (“+”: MIC (μg/mL): 64 ≧ MIC > 16),+ (“+”: MIC (μg/mL): 64 ≧ MIC > 16),− (“−”: MIC (μg/mL): MIC > 64),− (“−”: MIC (μg/mL): MIC > 64),++ (“++”: MIC (μg/mL): MIC ≦ 16)
CCCCCC(C)CCC(=O)NC1C(CO)OCC(n2c(N)nc3cc(C(F)(F)F)cc(Cl)c32)C1O (stereo not shown) [Compound 179],− (“−”: MIC (μg/mL): MIC > 64),− (“−”: MIC (μg/mL): MIC > 64),− (“−”: MIC (μg/mL): MIC > 64),− (“−”: MIC (μg/mL): MIC > 64),+ (“+”: MIC (μg/mL): 64 ≧ MIC > 16)
NC(C(=O)Nc1nc2cc(C(F)(F)F)ccc2n1C1C(CO)OCC(NS(=O)(=O)c2ccc(C(F)(F)F)cc2)C1O)c1ccc(-c2ccccc2)cc1 (stereo not shown) [Compound 240],++ (“++”: MIC (μg/mL): MIC ≦ 16),++ (“++”: MIC (μg/mL): MIC ≦ 16),− (“−”: MIC (μg/mL): MIC > 64),− (“−”: MIC (μg/mL): MIC > 64),++ (“++”: MIC (μg/mL): MIC ≦ 16)
Nc1ccccc1OC1C(NC(=O)Nc2ccc(Cl)c(C(F)(F)F)c2)COC(CO)C1NS(=O)(=O)c1ccc(-c2ccccc2)cc1 (stereo not shown) [Compound 62],++ (“++”: MIC (μg/mL): MIC ≦ 16),− (“−”: MIC (μg/mL): MIC > 64),− (“−”: MIC (μg/mL): MIC > 64),− (“−”: MIC (μg/mL): MIC > 64),+ (“+”: MIC (μg/mL): 64 ≧ MIC > 16)
